The text below walks through data of patent publication US10278971B2, “Fluorocyclopentenylcytosine methods of use” (Rexahn Pharmaceuticals, Inc., priority 2015, dated 2019).

Assay type in all cases: cell-based, human
The subject of one test is PCFT. Briefly: PCFT mediated transport of radiolabeled MTX. The note with it: CEM cells, 24 hr; RX-3117 29.6 μM; DAC positive control. The source says:
In this study, the following cell lines were used: (1) CCRF-CEM cells and its MTX resistant variant CEM-MTX, characterized by a deficiency of the reduced folate carrier (RFC) (Jansen G., et al., JBC 273 (1998) 30189-30198). The PCFT gene in CEM cells is highly methylated. (Gonen N., et al., BBRC 376 (2008) 787-92.); (2) CEM cells cultured in RPMI medium with 10% fetal bovine serum (FBS); and (3) A549 and SW1573 non-small cell lung cancer (NSCLC) and A2780 ovarian cancer cell lines cultured in DMEM medium with 10% FBS.
MTX transport was measured using radiolabeled MTX in CEM wild type and CEM-MTX cell lines. CEM cells have a high RFC activity. CEM-MTX are completely deficient in RFC-mediated transport. CEM cells have a highly methylated PCFT transporter and a very low PCFT mediated transport (Gonen N., et al., BBRC 376 (2008) 787-92). MTX transport at pH 7.4 is predominantly RFC mediated and less than 2% by PCFT. Folic acid was used to inhibit PCFT mediated transport. […] CEM and CEM-MTX cells were exposed to 29.6 μM RX-3117 and to 0, 19 μM aza-CdR as a positive control. MTX transport was measured after 24 hr to the drugs in a 3 minutes uptake assay using 2 μM [3′,5,′7-3H]-MTX.

A further test deals with DNMT1. Nature of the test: DNMT enzyme activity in isolated nuclei (DNA methyltransferase assay kit). The note with it: A2780 nuclear extracts, 5 μM, 24 hr. As for the experimental part: (§1) DNMT1 protein expression was measured by Western Blotting after exposure to RX-3117 for 24 or 48 hr. DNMT1 RNA expression was measured by real-time PCR after 24 and 48 hr exposure to RX-3117. DNMT enzyme activity was measured in isolated nuclei after exposure 1 μM RX-3117 or 5 μM aza-CdR using a DNA methyltransferase assay kit provided by EpiGentek using the ability of a CpG dinding domain to bind to methylated DNA. In A549 cells the effect of 5 μM RX-3117 on overall methylation was measured with a specific antibody against 5-methyl-cytosine. Bands on Western blots were visualized using appropriate InfraRedDye using an Odyssey InfraRed imager.

Test [1] deals with overall methylation of DNA. Briefly: Overall methylation of DNA with antibody against 5-methyl-cytosine. The note with it: A549, 5 μM, 48 hr exposure. As for the experimental part:
as §1

SMILES strings stand for the structures.

`Nc1ncn([C@H]2C[C@H](O)[C@@H](CO)O2)c(=O)n1` [DAC, 5-aza-2′-deoxycytidine, reference compound]: the “increase of PCFT mediated transport of MTX” value in the test on PCFT was found to be 4 fold. For the same compound, in the test on DNMT1, the “inhibition of DNMT1 activity” value stood at 31%. Besides, in test [1], the “decrease of overall methylation of DNA” value is on record as 9%.
